Data taken from patent US8314255B2, “Use of phthalimide and/or sulphonamide derivatives in the treatment of diseases which require reducing the TNF- α levels and an exogenous source of nitric oxide, phthalimide derivatives, sulphonamide derivatives, and a method for obtaining a sulphonamide derivative” (priority 2007, dated 2012).
“And” between values parts separate entries of the source, which are not always exact repeats. Equal values may be shown once.

Legend:
[1] = test system: abdominal writhing induced by acetic acid; assay: Abdominal writhing assay induced by acetic acid; type: in vivo; details: oral, mice, acetic acid 0.1N i.p. after 1 hour, writhings counted during 20 minutes
Procedure: In order to evaluate the peripheral analgesic activity of the compounds, an abdominal writhing assay induced by acetic acid (Table 6) was carried out. In this assay, we could infer that compound ID has an important analgesic activity, inhibiting abdominal writhing by 66%. […] The analgesic activity may be related to the ability of these compounds to inhibit the cytokine TNFα, since it is known that this would be one of the mechanisms that explain the analgesia of molecules such as thalidomide.
The antinociceptive profile was evaluated through the abdominal writhing assay induced by acetic acid in mice. In this assay, Swiss mice from both genders were used, weighing from 21 to 28 grams, fasted for a time period of about 8 hours. The test substance was administered orally and had, as a carrier, 5% gum arabic. After 1 hour, the administration of acetic acid 0.1N (0.1 mL/10 g weight) was performed in the peritoneal cavity of the animals. Ten minutes after the injection of acetic acid, writhings were counted during 20 minutes.

[2] = test system: Salmonella typhimurium TA102; assay: AMES test, mutagenic evaluation in Salmonella typhimurium TA102 strain with/without metabolic activation (S9); type: cell-based
Procedure, shortened: (§1)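 Preincubation Ames assay, 20–30 min at 37 °C with compound in DMSO, in 0.2 M phosphate buffer pH 7.4 or, with activation, Aroclor 1254-induced Sprague Dawley rat liver S9 mix. Plated in histidine/biotin-trace top agar, revertants counted after 48 h at 37 °C, triplicate. Mutagenicity ratio versus negative control, ≥2 scored positive; dose-response by ANOVA/Bernstein regression.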

[3] = test system: Salmonella typhimurium TA100; assay: AMES test, mutagenic evaluation in Salmonella typhimurium TA100 strain with/without metabolic activation (S9); type: cell-based
Procedure, shortened: as §1

O=C1c2ccccc2C(=O)N1c1ccc(CO[N+](=O)[O-])cc1 [ID, 4-(1,3-dioxo-1,3-dihydro-2H-isoindol-2-yl)benzyl nitrate]
Average (abdominal writhings) [1]: 16.2 | Inhibition % (abdominal writhing) [1]: 66% and 66.03% | mutagenicity ratio (MR) ([2]; TA 102, +S9, 0.224 μmol/plate): 1.09 | number of revertants per plate ([2]; TA 102, +S9, 0.224 μmol/plate): 405.7 ± 13 revertants/plate | mutagenicity ratio (MR) ([2]; TA 102, +S9, 0.488 μmol/plate): 1.16 | number of revertants per plate ([2]; TA 102, +S9, 0.488 μmol/plate): 434.7 ± 21 revertants/plate | mutagenicity ratio (MR) ([2]; TA 102, +S9, 0.896 μmol/plate): 0.99 | number of revertants per plate ([2]; TA 102, +S9, 0.896 μmol/plate): 370 ± 6 revertants/plate | mutagenicity ratio (MR) ([2]; TA 102, +S9, 1.8 μmol/plate): 1.06 | number of revertants per plate ([2]; TA 102, +S9, 1.8 μmol/plate): 397.3 ± 9.3 revertants/plate | mutagenicity ratio (MR) ([2]; TA 102, +S9, 3.58 μmol/plate): 1.14 | number of revertants per plate ([2]; TA 102, +S9, 3.58 μmol/plate): 427.3 ± 5 revertants/plate | mutagenicity ratio (MR) ([2]; TA 102, −S9, 0.224 μmol/plate): 1.31 | number of revertants per plate ([2]; TA 102, −S9, 0.224 μmol/plate): 340.3 ± 9.7 revertants/plate | mutagenicity ratio (MR) ([2]; TA 102, −S9, 0.488 μmol/plate): 1.43 | number of revertants per plate ([2]; TA 102, −S9, 0.488 μmol/plate): 373.5 ± 21 revertants/plate | mutagenicity ratio (MR) ([2]; TA 102, −S9, 0.896 μmol/plate): 1.5 | number of revertants per plate ([2]; TA 102, −S9, 0.896 μmol/plate): 391.2 ± 6.3 revertants/plate | mutagenicity ratio (MR) ([2]; TA 102, −S9, 1.8 μmol/plate): 1.87 | number of revertants per plate ([2]; TA 102, −S9, 1.8 μmol/plate): 486.8 ± 20 revertants/plate | mutagenicity ratio (MR) ([2]; TA 102, −S9, 3.58 μmol/plate): 1.62 | number of revertants per plate ([2]; TA 102, −S9, 3.58 μmol/plate): 420 ± 8.6 revertants/plate | mutagenicity ratio (MR) ([3]; TA 100, +S9, 0.224 μmol/plate): 1.21 | number of revertants per plate ([3]; TA 100, +S9, 0.224 μmol/plate): 157 ± 13 revertants/plate | mutagenicity ratio (MR) ([3]; TA 100, +S9, 0.488 μmol/plate): 1.42 | number of revertants per plate ([3]; TA 100, +S9, 0.488 μmol/plate): 184.7 ± 16 revertants/plate | mutagenicity ratio (MR) ([3]; TA 100, +S9, 0.896 μmol/plate): 1.67 | number of revertants per plate ([3]; TA 100, +S9, 0.896 μmol/plate): 216.7 ± 18 revertants/plate | mutagenicity ratio (MR) ([3]; TA 100, +S9, 1.8 μmol/plate): 1.49 | number of revertants per plate ([3]; TA 100, +S9, 1.8 μmol/plate): 192.7 ± 16 revertants/plate | mutagenicity ratio (MR) ([3]; TA 100, +S9, 3.58 μmol/plate): 2.03 | number of revertants per plate ([3]; TA 100, +S9, 3.58 μmol/plate): 263 ± 12.3 revertants/plate | mutagenicity ratio (MR) ([3]; TA 100, −S9, 0.224 μmol/plate): 1.27 | number of revertants per plate ([3]; TA 100, −S9, 0.224 μmol/plate): 228 ± 18 revertants/plate | mutagenicity ratio (MR) ([3]; TA 100, −S9, 0.488 μmol/plate): 1.33 | number of revertants per plate ([3]; TA 100, −S9, 0.488 μmol/plate): 239 ± 11.5 revertants/plate | mutagenicity ratio (MR) ([3]; TA 100, −S9, 0.896 μmol/plate): 1.29 | number of revertants per plate ([3]; TA 100, −S9, 0.896 μmol/plate): 231 ± 20.2 revertants/plate | mutagenicity ratio (MR) ([3]; TA 100, −S9, 1.8 μmol/plate): 1.18 | number of revertants per plate ([3]; TA 100, −S9, 1.8 μmol/plate): 212.3 ± 17 revertants/plate | mutagenicity ratio (MR) ([3]; TA 100, −S9, 3.58 μmol/plate): 1.94 | number of revertants per plate ([3]; TA 100, −S9, 3.58 μmol/plate): 349 ± 5.6 revertants/plate
